Experimental data taken from the supplement of paper PMC10307832.

Legend:
Assay in all cases: relative viability (nuclei count vs DMSO), 5 days (fraction); higher = more cells survive
Tosedostat + Decitabine = compound: CC(C)C[C@@H](C(=O)N[C@H](C(=O)OC1CCCC1)c1ccccc1)[C@H](O)C(=O)NO [Tosedostat] + Nc1ncn([C@H]2C[C@H](O)[C@@H](CO)O2)c(=O)n1 [Decitabine] (partner 2 µM)
Outline: (§1)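 Lung cancer cell lines in 1536-well plates got either a single drug or a fixed anchor-drug dose together with five library-drug doses (not always all listed) in √10 steps, by pin tool, on the day after seeding. Nuclei were counted after 5 days, and relative viability is the treated-to-vehicle ratio of nuclei counts. Values are medians of duplicate plates.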

[1] = compound: CC1=NN=C(O1)C2=NN=C(C=C2)N3CCC(CC3)OC4=C(C=CC(=C4)F)Cl + COc1cccc2cc(-c3nc([C@H]4CC[C@H](C(=O)O)CC4)n4ncnc(N)c34)[nH]c12 [OSI-027] (partner 0.5 µM)
Outline: as §1

Tosedostat + Crizotinib = compound: CC(C)C[C@@H](C(=O)N[C@H](C(=O)OC1CCCC1)c1ccccc1)[C@H](O)C(=O)NO [Tosedostat] + C[C@@H](Oc1cc(-c2cnn(C3CCNCC3)c2)cnc1N)c1c(Cl)ccc(F)c1Cl [Crizotinib] (partner 1 µM)
Outline: as §1

Tosedostat + OSI-027 = compound: CC(C)C[C@@H](C(=O)N[C@H](C(=O)OC1CCCC1)c1ccccc1)[C@H](O)C(=O)NO [Tosedostat] + COc1cccc2cc(-c3nc([C@H]4CC[C@H](C(=O)O)CC4)n4ncnc(N)c34)[nH]c12 [OSI-027] (partner 0.5 µM)
Outline: as §1

Row | Cell Line | relative viability (Tosedostat + Decitabine; first compound 0.02 µM) | relative viability (Tosedostat + Decitabine; first compound 0.06325 µM) | relative viability (Tosedostat + Decitabine; first compound 0.2 µM) | relative viability (Tosedostat + Decitabine; first compound 0.6325 µM) | relative viability (Tosedostat + Decitabine; first compound 2 µM) | relative viability ([1]; first compound 0.253 µM) | relative viability ([1]; first compound 0.8 µM) | relative viability ([1]; first compound 2.53 µM) | relative viability ([1]; first compound 8 µM) | relative viability (Tosedostat + Crizotinib; first compound 0.02 µM) | relative viability (Tosedostat + Crizotinib; first compound 0.06325 µM) | relative viability (Tosedostat + Crizotinib; first compound 0.2 µM) | relative viability (Tosedostat + Crizotinib; first compound 0.6325 µM) | relative viability (Tosedostat + Crizotinib; first compound 2 µM) | relative viability (Tosedostat + OSI-027; first compound 0.02 µM) | relative viability (Tosedostat + OSI-027; first compound 0.06325 µM) | relative viability (Tosedostat + OSI-027; first compound 0.2 µM) | relative viability (Tosedostat + OSI-027; first compound 0.6325 µM) | relative viability (Tosedostat + OSI-027; first compound 2 µM)
1 | HCC-15 | 0.675 | 0.649 | 0.591 | 0.446 | 0.433 | 0.605 | 0.573 | 0.532 | 0.522 | 0.939 | 0.836 | 0.834 | 0.777 | 0.635 | 0.751 | 0.718 | 0.579 | 0.467 | 0.46
2 | NCI-H1666 | 0.776 | 0.744 | 0.696 | 0.727 | 0.658 | 0.539 | 0.697 | 0.801 | 0.797 | 0.972 | 1.01 | 1.01 | 0.937 | 1.11 | 0.839 | 0.856 | 0.822 | 0.835 | 0.845
3 | ABC-1 | 1.17 | 1.13 | 1.27 | 1.19 | 1.05 | 0.244 | 0.326 | 0.411 | 0.47 | 1.15 | 0.868 | 1.02 | 0.83 | 0.631 | 0.588 | 0.546 | 0.423 | 0.391 | 0.406
4 | LCLC-103H | 0.792 | 0.745 | 0.728 | 0.763 | 0.76 | 0.372 | 0.426 | 0.426 | 0.385 | 1.09 | 1.03 | 1.06 | 1.13 | 1.02 | 0.553 | 0.417 | 0.491 | 0.502 | 0.472
5 | NCI-H650 | 0.291 | 0.339 | 0.316 | 0.319 | 0.262 | 0.553 | 0.447 | 0.528 | 0.437 | 0.786 | 0.662 | 0.596 | 0.551 | 0.375 | 0.611 | 0.5 | 0.454 | 0.455 | 0.364
6 | EPLC-272H | 0.364 | 0.37 | 0.363 | 0.328 | 0.254 | 0.283 | 0.248 | 0.26 | 0.298 | 0.915 | 0.877 | 0.635 | 0.613 | 0.25 | 0.281 | 0.265 | 0.301 | 0.263 | 0.24
